In ChEMBL document CHEMBL4402572, “Development of Benzenesulfonamide Derivatives as Potent Glutathione Transferase Omega-1 Inhibitors” (J Med Chem, 2020):
In brackets after ≈: the same amount, converted by molar mass.

How the values were obtained:
[1] = biological target: T1, Glutathione S-transferase omega-1 (Homo sapiens, UniProt P78417); test: Inhibition of recombinant GSTO1-1 (unknown origin) expressed in Escherichia coli using S-(4-nitrophenacyl)glutathione as substrate preincubated for 2 mins followed by substrate addition by 4-NPG assay
T1 sequence (P78417 whole entry): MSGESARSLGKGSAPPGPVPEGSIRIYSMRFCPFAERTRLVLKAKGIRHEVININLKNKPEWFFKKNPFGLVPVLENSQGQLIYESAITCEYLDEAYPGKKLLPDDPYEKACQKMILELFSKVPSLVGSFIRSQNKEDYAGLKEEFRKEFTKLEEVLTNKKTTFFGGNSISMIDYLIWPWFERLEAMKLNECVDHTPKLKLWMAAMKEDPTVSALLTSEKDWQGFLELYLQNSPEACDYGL

[2] = Drug level in Swiss mouse plasma at 30 mg/kg, ip after 5 mins by UPLC-MS analysis; type: ADME, organism-based
[3] = biological target: T2, Glutathione S-transferase omega-1 (Mus musculus) (UniProt O09131); test: Inhibition of GSTO1-1 in mouse bone marrow derived macrophage cells assessed as reduction in LPS-induced IL-1beta release by measuring IL1 beta level at 5 uM pretreated with LPS for 3 hrs followed by compound addition and measured after 1 hr by ELISA relative to control; design: scale not given: the % may be the effect or the level left
T2 sequence (whole entry): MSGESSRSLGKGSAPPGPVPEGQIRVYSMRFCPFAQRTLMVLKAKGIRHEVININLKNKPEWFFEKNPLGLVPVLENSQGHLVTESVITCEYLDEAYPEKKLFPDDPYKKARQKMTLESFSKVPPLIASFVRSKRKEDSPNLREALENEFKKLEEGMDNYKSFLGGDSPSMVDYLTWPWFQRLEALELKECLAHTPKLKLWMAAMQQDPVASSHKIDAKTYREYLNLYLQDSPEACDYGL

[4] = biological target: T1, Glutathione S-transferase omega-1; test: Inhibition of recombinant GSTO1-1 (unknown origin) expressed in Escherichia coli assessed as inhibitor constant using S-(4-nitrophenacyl)glutathione as substrate preincubated for 1 to 6 mins followed by substrate addition by spectrophotmetric analysis
[5] = Drug concentration in Swiss mouse plasma at 30 mg/kg, ip measured up to 2 hrs post dose by UPLC-MS analysis; type: ADME, organism-based
[6] = biological target: T3, Glutathione S-transferase omega-1 (Homo sapiens) (UniProt P78417)
T3 sequence (whole entry): T1 sequence (P78417 whole entry)
Description: Inhibition of recombinant GSTO1-1 (unknown origin) expressed in Escherichia coli assessed as Kinact using S-(4-nitrophenacyl)glutathione as substrate preincubated for 1 to 6 mins followed by substrate addition by spectrophotmetric analysis

[7] = Kinetic solubility of compound in pH 7.4 phosphate buffer solution after 30 mins by nephelometry; type: physicochemical; details: read-out: Kinetic_solubility
[8] = Kinetic solubility of compound in water after 30 mins by nephelometry; type: physicochemical; details: read-out: Kinetic_solubility
[9] = Drug concentration in Swiss mouse plasma at 30 mg/kg, ip measured at 1 hr post dose by UPLC-MS analysis; type: ADME, organism-based
[10] = Stability in human liver microsomes assessed as drug degradation at 1 uM incubated for 60 mins in absence of NADPH by UPLC-MS analysis; type: ADME, Microsome; details: 1 h
[11] = Half life in human liver microsomes at 1 uM incubated for 60 mins in presence of NADPH by UPLC-MS analysis; type: ADME, Microsome
[12] = Stability in mouse liver microsomes assessed as drug degradation at 1 uM incubated for 60 mins in absence of NADPH by UPLC-MS analysis; type: ADME, Microsome; details: 1 h
[13] = Half life in mouse liver microsomes at 1 uM incubated for 60 mins in presence of NADPH by UPLC-MS analysis; type: ADME, Microsome
[14] = Cmax in Swiss mouse at 30 […], ip measured at 5 mins post dose by UPLC-MS analysis; type: ADME, organism-based; design: route intraperitoneal; details: in vivo
[15] = Drug concentration in Swiss mouse plasma at 30 mg/kg, ip measured up to 4 hrs post dose by UPLC-MS analysis; type: ADME, organism-based
[16] = Half life in Swiss mouse at 30 mg/kg, ip after 0.083 to 24 hrs by UPLC-MS analysis; type: ADME, organism-based; details: in vivo

SMILES | IC50 [1] [µM] | Activity [3] [%] | other results
CN(C)S(=O)(=O)c1cc(NC(=O)CF)ccc1Cl | > 100 | – | –
CC(Cl)C(=O)Nc1ccc(Cl)c(S(=O)(=O)N(C)C)c1 (stereo not given) | > 10 | – | –
CN(C)S(=O)(=O)c1cc(NC(=O)CCCl)ccc1Cl | > 10 | – | –
CN(C)S(=O)(=O)c1cc(NC(=O)CC#N)ccc1Cl | > 100 | – | –
CN(C)S(=O)(=O)c1cc(CC2CO2)ccc1Cl (stereo not given) | > 100 | – | –
COCCNS(=O)(=O)c1cc(NC(=O)CCl)ccc1Cl | 0.03 | 47.8 | Ki [4]: 2.5 µM; Kinact [6]: 0.8 min⁻¹
C/C=C/C(=O)Nc1ccc(Cl)c(S(=O)(=O)N(C)C)c1 | > 100 | – | –
CN(C)S(=O)(=O)c1cc(NC(=O)C(N)=O)ccc1Cl | > 1000 | – | –
O=C(CCl)Nc1ccc(Cl)c(S(=O)(=O)NCCO)c1 | 0.7 | – | –
CN(C)S(=O)(=O)c1cc(C2CO2)ccc1Cl (stereo not given) | 1.2 | 43.7 | Ki [4]: 5 µM; Kinact [6]: 0.47 min⁻¹
C=CC(=O)Nc1ccc(Cl)c(S(=O)(=O)N(C)C)c1 | – | 92.8 | –
COCCN(C)S(=O)(=O)c1cc(NC(=O)CCl)ccc1Cl | 0.08 | 61.3 | Ki [4]: 6.9 µM; Kinact [6]: 0.61 min⁻¹
CC(=O)C(=O)Nc1ccc(Cl)c(S(=O)(=O)N(C)C)c1 | > 10 | – | –
CN(C)S(=O)(=O)c1cc(CCS(=O)(=O)F)ccc1Cl | > 10 | – | –
CN(C)S(=O)(=O)c1cc(/C=C/S(=O)(=O)F)ccc1Cl | > 10 | – | –
CN(C)S(=O)(=O)c1cc(NC(=O)CCl)ccc1-c1ccccc1 | 0.71 | – | –
COCCCNS(=O)(=O)c1cc(NC(=O)CCl)ccc1Cl | 0.11 | – | Ki [4]: 9.9 µM; Kinact [6]: 1.3 min⁻¹
CN(CCO)S(=O)(=O)c1cc(NC(=O)CCl)ccc1Cl | 0.18 | – | –
CN(C)S(=O)(=O)c1cc(NCC#N)ccc1Cl | > 100 | – | –
CN(C)S(=O)(=O)c1cc(CCCS(=O)(=O)F)ccc1Cl | 3.2 | – | –
COCCCN(C)S(=O)(=O)c1cc(NC(=O)CCl)ccc1Cl | 0.16 | 41.5 | –
CN(C)S(=O)(=O)c1cc(CS(=O)(=O)F)ccc1Cl | 0.8 | 39.8 | Ki [4]: 9.6 µM; Kinact [6]: 2.3 min⁻¹

More lines, main results first:

IC50 [1] [µM] | Activity [3] [%] | SMILES | other results
0.58 | – | CNS(=O)(=O)c1cc(NC(=O)CCl)ccc1Cl | –
0.34 | – | O=C(CCl)Nc1ccc(Cl)c(S(=O)(=O)NC2CCOC2)c1 (stereo not given) | –
0.06 | 27.5 | CN(C)S(=O)(=O)c1cc(NC(=O)CCl)ccc1C(F)(F)F | concentration at 5 min [2]: 11600 nM; Ki [4]: 1.2 µM; concentration at 2 h [5]: 1.5 nM; Kinact [6]: 1.1 min⁻¹
0.21 | – | CN(C)S(=O)(=O)c1cc(NC(=O)CCl)ccc1OC(F)(F)F | –
– | 66.8 | CN(C)S(=O)(=O)c1cc(NC(=O)CCl)ccc1Cl | solubility kinetic at 0.5 h [7]: 50 to 100 µg/mL (≈ 161 to 321 µM); solubility kinetic at 0.5 h [8]: 50 to 100 µg/mL (≈ 161 to 321 µM); concentration at 1 h [9]: 32.1 nM; Stability [10]: Unstable; half-life at 1 µM [11]: < 2 min; Stability [12]: Unstable; half-life at 1 µM [13]: 7 min; Cmax [14]: 9380 nM
0.2 | – | O=C(CCl)Nc1ccc(Cl)c(S(=O)(=O)NCC2CCCO2)c1 (stereo not given) | –
0.25 | 3.4 | O=C(CCl)Nc1ccc(C(F)(F)F)c(S(=O)(=O)N2CCOCC2)c1 | Ki [4]: 0.61 µM; concentration at 4 h [15]: 6.5 nM; Cmax [14]: 6370 nM; half-life [16]: 84 min; Kinact [6]: 0.85 min⁻¹
0.15 | – | CN(C)S(=O)(=O)c1cc(NC(=O)CCl)ccc1Br | –
0.07 | 36 | CC(C)NS(=O)(=O)c1cc(NC(=O)CCl)ccc1Cl | Ki [4]: 4.8 µM; Kinact [6]: 3 min⁻¹
0.13 | – | CN(C)S(=O)(=O)c1cc(NC(=O)CCl)ccc1I | –
0.16 | 24.3 | O=C(CCl)Nc1ccc(Cl)c(S(=O)(=O)N2CCOCC2)c1 | concentration at 5 min [2]: 3870 nM; Ki [4]: 6.7 µM; concentration at 1 h [9]: 7.1 nM; Kinact [6]: 8.1 min⁻¹
